Test results from patent publication US12336991B2, “Factor XIIA inhibitors” (UNIVERSITY OF LEEDS, priority 2018, dated 2025).

What was measured:
Assay type in all cases: biochemical
FXIIa = molecular target: T1, FXIIa (Homo sapiens, UniProt P00748); assay: Determination of Factor XIIa inhibition, chromogenic substrate S-2302 assay; conditions: human FXIIa alpha
T1 sequence (P00748 373-615 limits assumed): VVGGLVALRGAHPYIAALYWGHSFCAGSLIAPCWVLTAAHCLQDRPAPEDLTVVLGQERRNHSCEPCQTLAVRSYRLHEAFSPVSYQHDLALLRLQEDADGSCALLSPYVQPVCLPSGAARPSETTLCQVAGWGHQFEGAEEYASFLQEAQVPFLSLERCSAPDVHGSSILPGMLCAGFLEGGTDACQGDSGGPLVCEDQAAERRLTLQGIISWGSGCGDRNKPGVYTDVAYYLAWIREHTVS
T1 sequence (P00748 20-372 partner limits assumed): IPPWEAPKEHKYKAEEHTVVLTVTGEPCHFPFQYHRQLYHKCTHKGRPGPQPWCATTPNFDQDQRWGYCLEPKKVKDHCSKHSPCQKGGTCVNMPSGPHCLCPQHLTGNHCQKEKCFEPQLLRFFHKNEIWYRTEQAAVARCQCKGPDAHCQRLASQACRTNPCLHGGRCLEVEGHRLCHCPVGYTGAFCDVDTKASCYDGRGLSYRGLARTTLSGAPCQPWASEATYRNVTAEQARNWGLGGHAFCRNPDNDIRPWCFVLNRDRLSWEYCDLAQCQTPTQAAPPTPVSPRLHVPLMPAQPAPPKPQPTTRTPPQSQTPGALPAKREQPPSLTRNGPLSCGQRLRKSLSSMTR
Procedure, shortened: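 FXIIa (10 nM) preincubated with compound 10 min at 37° C. in 50 mM Tris, 137 mM NaCl pH 7.4, 5% DMSO, top concentration 500 μM, then S-2302 added ([…]). Absorbance at 405 nm read kinetically for 3 h; IC50 from initial rates, converted to Ki by Cheng-Prusoff.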

thrombin = molecular target: T2, thrombin (Homo sapiens, UniProt P00734); assay: Determination of selectivity: thrombin inhibition, chromogenic substrate GPR assay; conditions: fold selectivity for FXIIa over thrombin
T2 construct: FXa (5 nM) and thrombin (5 nM)
Procedure, shortened: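 Thrombin (5 nM) preincubated with compound 10 min at 37 °C in 50 mM Tris, 137 mM NaCl, pH 7.4, 5% DMSO, then GPR substrate ([…]) added. Absorbance at 405 nm read kinetically for 3 h; IC50 from initial rates, converted to Ki via Ki=IC50/(1+[S]/Km).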

FXa = FXa (Homo sapiens, UniProt P00742); assay: Determination of selectivity: FXa inhibition, chromogenic substrate S2765 assay; conditions: fold selectivity for FXIIa over FXa
Procedure, shortened: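 Human FXa (5 nM) preincubated with compound (top 500 μM, 5% DMSO) 10 min at 37 °C in 50 mM Tris, 137 mM NaCl pH 7.4, then S2765 ([…]) added; A405 kinetics over 3 h at 37 °C. IC50 from initial rates, converted to Ki via Cheng-Prusoff.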

Sequence of FXa (P00742 235-488 limits assumed): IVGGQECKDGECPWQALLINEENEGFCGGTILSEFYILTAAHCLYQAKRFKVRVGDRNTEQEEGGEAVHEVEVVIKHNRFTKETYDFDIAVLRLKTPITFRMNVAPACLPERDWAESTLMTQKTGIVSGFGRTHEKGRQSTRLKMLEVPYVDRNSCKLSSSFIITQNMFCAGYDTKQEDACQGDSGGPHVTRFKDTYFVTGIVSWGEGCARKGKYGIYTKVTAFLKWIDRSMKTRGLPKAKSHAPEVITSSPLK
Sequence of FXa (P00742 41-179 partner limits assumed): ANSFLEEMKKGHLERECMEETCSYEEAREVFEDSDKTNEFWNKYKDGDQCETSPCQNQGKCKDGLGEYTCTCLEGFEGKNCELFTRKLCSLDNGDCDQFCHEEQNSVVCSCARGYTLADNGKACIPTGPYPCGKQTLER

Row | SMILES | Ki (FXIIa) [µM] | Thrombin (human)/FXIIa alpha (human) (thrombin) | FXa (human)/FXIIa alpha (human) (FXa)
1 | Cn1nnc2cc(CNC(=O)[C@@H]3CC(Cc4ccc(C(F)(F)F)cc4)CN3C(=O)[C@H](N)CCC(=O)N3CCCC3)ccc21 (stereo partly drawn) [Example M05309] | 0.2 to 2 | +++ (fold selectivity values greater than 100) | ∘∘∘
2 | Cn1nnc2cc(CNC(=O)[C@@H]3C[C@@H](Cc4ccccc4Cl)CN3C(=O)[C@H]3C[C@@H](c4ccccc4)CN3)ccc21 [Example M05333] | > 2 | ++ (fold selectivity value of 10 to 100) | ∘
3 | NCc1ccc(CNC(=O)[C@@H]2C[C@H](C3CCCCC3)CN2C(=O)[C@H](N)CCc2ccccc2)cc1 [Example M05076, (2S,4R)-1-((R)-2-Amino-4-phenyl-butyryl)-4-cyclohexyl-pyrrolidine-2-carboxylic acid 4-aminomethyl-benzylamide] | > 2 | ++ (fold selectivity value of 10 to 100) | ∘∘
4 | COc1ccc(C[C@@H]2C[C@@H](C(=O)NCc3ccc4c(c3)nnn4C)N(C(=O)C3NCCc4cc(Br)ccc43)C2)cc1 (stereo partly drawn) [Example M05470] | < 0.2 | +++ (fold selectivity values greater than 100) | ∘∘∘
5 | Cn1nnc2cc(CNC(=O)[C@@H]3C[C@@H](Cc4ccncc4)CN3C(=O)[C@@H](CCC(=O)N3CCCC3)NCC(F)(F)F)ccc21 [Example M05271] | > 2 | ++ (fold selectivity value of 10 to 100) | ∘∘
6 | Cn1nnc2cc(CNC(=O)[C@@H]3C[C@@H](Cc4ccc(-c5cn[nH]c5)cc4)CN3C(=O)[C@H]3C[C@@H](c4ccccc4)CN3)ccc21 [Example M05364] | > 2 | ++ (fold selectivity value of 10 to 100) | ∘∘
7 | COc1ccc(C[C@@H]2C[C@@H](C(=O)NCc3ccc4c(c3)nnn4C)N(C(=O)[C@@H]3NCCc4ccccc43)C2)cc1 [Example M05368] | > 2 | ++ (fold selectivity value of 10 to 100) | ∘∘
8 | Cn1nnc2cc(CNC(=O)[C@@H]3C[C@H](Cc4ccccn4)CN3C(=O)[C@H](N)CCC(=O)N3CCCC3)ccc21 [Example M05296] | 0.2 to 2 | +++ (fold selectivity values greater than 100) | ∘∘∘
9 | Cn1nccc1-c1ccc(C[C@@H]2C[C@@H](C(=O)NCc3ccc4c(c3)nnn4C)N(C(=O)[C@H]3C[C@@H](c4ccccc4)CN3)C2)cc1 [Example M05367] | 0.2 to 2 | +++ (fold selectivity values greater than 100) | ∘∘∘
10 | Cn1nnc2cc(CNC(=O)[C@@H]3C[C@@](O)(c4ccccc4)CN3C(=O)[C@H](N)CCc3ccccc3)ccc21 [Example M05126] | > 2 | ++ (fold selectivity value of 10 to 100) | ∘∘
11 | COC(=O)N[C@H]1C[C@@H](C(=O)NCc2ccc3c(c2)nnn3C)N(C(=O)[C@H](N)CCc2ccccc2)C1 [Example M05207] | > 2 | ++ (fold selectivity value of 10 to 100) | ∘∘
12 | Cn1nnc2cc(CNC(=O)[C@@H]3C[C@H](NCCCc4ccccc4)CN3C(=O)[C@H](N)CCc3ccccc3)ccc21 [Example M05206] | > 2 | ++ (fold selectivity value of 10 to 100) | ∘∘
13 | COc1ccc(C[C@@H]2C[C@@H](C(=O)NCc3ccc4c(Cl)nn(C)c4c3)N(C(=O)[C@H](N)CCC(=O)N3CCCC3)C2)cc1 [Example M05449] | < 0.2 | +++ (fold selectivity values greater than 100) | ∘∘∘
14 | COc1ccc(C[C@@H]2C[C@@H](C(=O)NCc3cc4cnccc4[nH]3)N(C(=O)C3NCCc4cc(OC)ccc43)C2)cc1 (single isomer, unassigned) [Example M00963] | < 0.2 | +++ (fold selectivity values greater than 100) | ∘∘∘
15 | COc1ccc(C[C@@H]2C[C@@H](C(=O)NCc3ccc4c(c3)nnn4C)N(C(=O)[C@H]3C[C@@H](c4ccccc4)CN3)C2)cc1 [Example M05289] | 0.2 to 2 | +++ (fold selectivity values greater than 100) | ∘∘∘
16 | Cn1cc(-c2ccc(C[C@@H]3C[C@@H](C(=O)NCc4ccc5c(c4)nnn5C)N(C(=O)[C@H](N)CCC(=O)N4CCCC4)C3)cc2)cn1 [Example M05341] | 0.2 to 2 | +++ (fold selectivity values greater than 100) | ∘∘∘
17 | NCc1ccc(CNC(=O)[C@@H]2C[C@@H](Cc3cccc(Cl)c3)CN2C(=O)[C@H](N)CCc2ccccc2)cc1 [Example M05130] | 0.2 to 2 | ++ (fold selectivity value of 10 to 100) | ∘∘∘
18 | Cn1nnc2cc(CNC(=O)[C@@H]3CC(Cc4ccc(OC(F)(F)F)cc4)CN3C(=O)[C@H](N)CCC(=O)N3CCCC3)ccc21 (stereo partly drawn) [Example M05306, (S)-1-((R)-2-Amino-5-oxo-5-pyrrolidin-1-yl-pentanoyl)-4-(4-trifluoromethoxy-benzyl)-pyrrolidine-2-carboxylicacid (1-methyl-1H-benzotriazol-5-ylmethyl)-amide] | < 0.2 | +++ (fold selectivity values greater than 100) | ∘∘∘
19 | COc1ccc(C[C@@H]2C[C@@H](C(=O)NCc3ccc4c(c3)nnn4C)N(C(=O)[C@H]3CC(c4cccnc4C(F)(F)F)CN3)C2)cc1 (stereo partly drawn) [Example M05421] | 0.2 to 2 | +++ (fold selectivity values greater than 100) | ∘∘∘
20 | Cn1nnc2cc(CNC(=O)[C@]3(C)CCCN3C(=O)[C@H](N)CCC(=O)N3CCCC3)ccc21 [Example M05318] | > 2 | + (fold selectivity values less than 10) | ∘∘
21 | Nc1nccc2cc(CNC(=O)[C@@H]3CCCN3C(=O)[C@H](N)CCc3ccccc3)ccc12 [Example M05237] | 0.2 to 2 | + (fold selectivity values less than 10) | ∘∘
22 | COc1ccc(CC2C[C@@H](C(=O)NCc3ccc4c(c3)nnn4C)N(C(=O)[C@H]3C[C@@H](c4ccccc4)CN3)C2)cc1OC (stereo partly drawn) [Example M05348] | 0.2 to 2 | +++ (fold selectivity values greater than 100) | ∘∘∘
23 | COc1cc(CNC(=O)[C@@H]2C[C@@H](C)CN2C(=O)[C@H](N)CCc2ccccc2)ccc1CN [Example M05074] | 0.2 to 2 | + (fold selectivity values less than 10) | ∘∘∘
24 | Cn1nnc2cc(CNC(=O)[C@@H]3C[C@@H](Cc4ccncc4)CN3C(=O)[C@H]3C[C@@H](c4ccccc4)CN3)ccc21 [Example M05288] | > 2 | ++ (fold selectivity value of 10 to 100) | ∘∘∘
